According to patent US20220362262A1, “METHODS AND COMPOSITIONS FOR TISSUE REGENERATION” (Institute of Zoology, Chinese Academy of Sciences, priority 2019, published 2022):
Entries after “also recorded” stand apart in the source; their conditions may differ.

Experiments:
[1] = test system: cryoinjured TA muscle; test: Muscle regeneration after cryoinjury: regenerative index, myogenic proteins, myofiber diameter, grip strength after bolus injection; format: in vivo, mice; settings: for regenerative index (fraction of nuclei in embryonic MHC-positive myofibers): single bolus, combinations: prostaglandin at day 0, rosiglitazone at day 1, relative to DMSO vehicle; for grip strength: 14 days post-injury, 6-week old mice, prostaglandin at 0 h, rosiglitazone at 24 h post-injury; for hypertrophic growth (myofiber cross-sectional Feret diameters): prostaglandin at day 0, rosiglitazone at day 1
Text: (§1) Some tissues were flash frozen for cryosectioning.

[2] = test system: muscle stem cells and myoblasts in gastrocnemius, quadriceps and TA muscle; test: Stem cell and myoblast activation in skeletal muscles without injury, immunofluorescence 2 days after single bolus; format: in vivo, mice; settings: for fraction of proliferative muscle stem cells (Pax7-positive Ki67-positive cells) / total pool of muscle stem cells (Pax7-positive cells) / total pool of proliferative cells (Ki67-positive cells): without injury
Text: as §1

[3] = test system: pure primary human myoblasts; test: Pure primary human myoblasts treated with PGI2-related drugs (Western blot, qRT-PCR); format: cell-based; settings: for H3K9ac and MyoD protein (Western blot) / PPARG protein levels (Western blot): pure primary human myoblasts, relative to DMSO
[4] = test system: Ki67-positive proliferative progenitor cells in liver, heart, skin, hair follicles; test: Ki67+ progenitor cells in non-skeletal muscle tissues without injury, 2 days after intra-peritoneal treprostinil; format: in vivo, mice
Text: as §1

[5] = test system: fibrosis in TA muscle, liver, skin and heart of 2-year old mice; test: Aging-induced fibrosis and fibrotic precursors in 2-year old mice after daily injection; format: in vivo; settings: for relative changes in the % fibrotic area (Masson trichrome staining) / relative changes in the percentage fraction of fibrotic precursors (PGDFRA-positive and Ki67-positive): 7 days post-injection, 2-year old mice; for relative changes in the % fibrotic area (Masson trichrome staining) / relative changes in the percentage fraction of fibrotic precursors (PGDFRA-positive and Ki67-positive) / aging-induced fibrosis (fibrotic area) in multiple non-skeletal muscle tissues: daily injection
Text: as §1

[6] = test system: cryoinjured TA muscle; test: PGI2 bolus in cryoinjured TA muscle: cAMP, PPARs, H3K9ac and myogenic markers; format: in vivo, mice
[7] = test system: primary human myoblasts; test: Proliferation of primary human myoblasts under PGI2 treatment; format: cell-based
[8] = gastrocnemius muscle, 2 days after intramuscular single bolus, PPARD drugs
[9] = TA muscle, 2 days after intramuscular single bolus, with or without HGF
[10] = TA muscle, 2 days after intramuscular single bolus
[11] = gastrocnemius muscle, 2 days after intra-peritoneal single bolus
[12] = gastrocnemius muscle, 2 days after intraperitoneal single bolus, with or without fenofibrate or WY-14643
[13] = quadriceps muscles, 2 days after intra-peritoneal single bolus
[14] = liver, skin and heart, 2-year-old mice
[15] = TA muscle 1-2 days post-cryoinjury
[16] = injured TA muscle, single bolus
[17] = differentiating myoblasts (24 h post-differentiation)

Molecule: O=C(NCCS(=O)(=O)c1ccc(C(F)(F)F)cn1)c1ccc(Cl)cc1 [GSK3787]
- regenerative index (fraction of nuclei in embryonic MHC-positive myofibers) ([1]; TA muscle 6.5 days post-injury): not
- percentage fraction of proliferative muscle stem cells (Pax7-positive Ki67-positive cells) [2, 8]: no effect
- percentage fraction of proliferative myoblasts (MyoD-positive Ki67-positive cells) [2, 8]: slightly increased

Molecule: CCCCC[C@H](O)/C=C/[C@H]1C(=O)C[C@H](O)[C@@H]1C/C=C\CCCC(=O)O [PGD2, prostaglandin D2]
- regenerative index (fraction of nuclei in embryonic MHC-positive myofibers) ([1]; TA muscle 6.5 days post-injury): slightly but significantly increase muscle regeneration; also recorded: slightly increased regeneration

Molecule: Cc1cc(SCc2sc(-c3ccc(C(F)(F)F)c(F)c3)nc2C)ccc1OCC(=O)O [GW0742]
- regenerative index (fraction of nuclei in embryonic MHC-positive myofibers) ([1]; TA muscle 6.5 days post-injury): significantly decrease muscle regeneration
- percentage fraction of proliferative muscle stem cells (Pax7-positive Ki67-positive cells) [2, 8]: surprisingly decreased
- percentage fraction of proliferative myoblasts (MyoD-positive Ki67-positive cells) [2, 8]: no effect

Molecule: CCCCC[C@@H](/C=C/[C@H]1[C@H](CCCCCCC(=O)O)[C@H]2C[C@@H]1OO2)OO [PGG1]
- regenerative index (fraction of nuclei in embryonic MHC-positive myofibers) ([1]; TA muscle 6.5 days post-injury): no significant effect; also recorded: did not cause significant changes

Molecule: HGF: hepatocyte growth factor
- percentage fraction of proliferative muscle stem cells (Pax7-positive Ki67-positive cells) [2, 9]: significantly increased; also recorded: could increase
- percentage fraction of proliferative myoblasts (MyoD-positive Ki67-positive cells) [2, 9]: slightly increased; also recorded: could increase

Molecule: CCCCC[C@H](O)CC[C@@H]1[C@H]2Cc3cccc(OCC(=O)O)c3C[C@H]2C[C@H]1O [treprostinil]
- grip strength [1]: partially restore grip strength
- Pax7, MyoD, MyoG and Myh3 protein expression (Western blot densitometry) ([1]; TA muscle 6 days post-cryoinjury, treprostinil at day 0, rosiglitazone at day 1 in the combination): significantly increase; also recorded: could also increase
- hypertrophic growth (myofiber cross-sectional Feret diameters) ([1]; TA muscle 6.5 days post-injury): increase hypertrophic growth
- regenerative index (fraction of nuclei in embryonic MHC-positive myofibers) ([1]; TA muscle 6.5 days post-injury): significantly increase muscle regeneration
- H3K9ac and MyoD protein (Western blot) [3]: followed the same pattern of regulation as PPARG
- PPARG protein levels (Western blot) [3]: stabilize and/or upregulate
- percentage fraction of proliferative muscle stem cells (Pax7-positive Ki67-positive cells) [2, 9]: significantly increased; also recorded: could increase
- percentage fraction of proliferative myoblasts (MyoD-positive Ki67-positive cells) [2, 9]: slightly increased; also recorded: could increase
- fraction of proliferative muscle stem cells (Pax7-positive Ki67-positive cells) [2, 10]: significantly increased
- fraction of proliferative muscle stem cells (Pax7-positive Ki67-positive cells) [2, 11]: significantly increased
- total pool of muscle stem cells (Pax7-positive cells) [2, 11]: significantly increased
- total pool of proliferative cells (Ki67-positive cells) [2, 11]: significantly increased
- percentage fraction of proliferative muscle stem cells (Pax7-positive Ki67-positive cells) [2, 8]: significantly increased
- percentage fraction of proliferative myoblasts (MyoD-positive Ki67-positive cells) [2, 8]: slightly increased
- percentage fraction of myoblasts (MyoD-positive cells) [2, 12]: significantly increased
- percentage fraction of proliferative myoblasts (MyoD-positive Ki67-positive cells) [2, 12]: significantly increased
- fraction of proliferative muscle stem cells (Pax7-positive Ki67-positive cells) [2, 13]: significantly increased
- total pool of muscle stem cells (Pax7-positive cells) [2, 13]: significantly increased
- total pool of proliferative cells (Ki67-positive cells) [2, 13]: significantly increased
- total pool of proliferative progenitor cells (Ki67-positive cells) ([4]; endoderm-derived liver tissue): significantly increased
- total pool of proliferative progenitor cells (Ki67-positive cells) ([4]; endoderm-derived liver tissue, listed as Treprostinil): increase the total pool of Ki67+ progenitor cells
- total pool of proliferative progenitor cells (Ki67-positive cells) ([4]; mesoderm-derived heart and cardiac muscle tissue): significantly increased; also recorded: increase the total pool of Ki67+ progenitor cells
- total pool of proliferative progenitor cells (Ki67-positive cells) ([4]; neuroectoderm-derived skin tissue): significantly increased; also recorded: increase
- total pool of proliferative progenitor cells (Ki67-positive cells) ([4]; skin tissue's telogen hair follicles): significantly increased; also recorded: increase
- relative changes in the % fibrotic area (Masson trichrome staining) ([5]; TA muscle): partially reverse the aged muscle fibrosis; also recorded: significant reversal of aging-induced fibrosis
- relative changes in the percentage fraction of fibrotic precursors (PGDFRA-positive and Ki67-positive) ([5]; TA muscle): partially suppress the aged muscle fibrotic precursors
- relative changes in the % fibrotic area (Masson trichrome staining) ([5]; heart tissue): partially reverse the aged cardiac fibrosis
- relative changes in the percentage fraction of fibrotic precursors (PGDFRA-positive and Ki67-positive) ([5]; heart tissue): partially suppress the aged cardiac fibrotic precursors
- relative changes in the % fibrotic area (Masson trichrome staining) ([5]; liver tissue): partially reverse the aged liver fibrosis
- relative changes in the percentage fraction of fibrotic precursors (PGDFRA-positive and Ki67-positive) ([5]; liver tissue): partially suppress the aged liver fibrotic precursors
- PDGFRA+ Ki67+ fibrotic precursor numbers in multiple non-skeletal muscle tissues [5, 14]: suppress
- aging-induced fibrosis (fibrotic area) in multiple non-skeletal muscle tissues [5, 14]: significant reversal of aging-induced fibrosis
- relative changes in the % fibrotic area (Masson trichrome staining) ([5]; skin tissue): partially reverse the aged skin fibrosis
- relative changes in the percentage fraction of fibrotic precursors (PGDFRA-positive and Ki67-positive) ([5]; skin tissue): partially suppress the aged skin fibrotic precursors

Molecule: CC(C)OC(=O)C(C)(C)Oc1ccc(C(=O)c2ccc(Cl)cc2)cc1 [fenofibrate]
- percentage fraction of myoblasts (MyoD-positive cells) [2, 12]: no effect
- percentage fraction of proliferative myoblasts (MyoD-positive Ki67-positive cells) [2, 12]: no effect

Molecule: CCCCC[C@H](O)/C=C/[C@@H]1[C@H]2C/C(=C/CCCC(=O)O)O[C@H]2C[C@H]1O [PGI2, prostacyclin]
- grip strength [1]: partially restore grip strength
- hypertrophic growth (myofiber cross-sectional Feret diameters) ([1]; TA muscle 6.5 days post-injury): increase hypertrophic growth
- regenerative index (fraction of nuclei in embryonic MHC-positive myofibers) ([1]; TA muscle 6.5 days post-injury): significantly increase muscle regeneration; also recorded: significantly promoted muscle regeneration
- optimal PGI2 concentration for muscle regeneration (regenerative index saturated and peaked) ([1]; titration of single bolus, TA muscle 6.5 days post-injury): 6.5 to 13 mM
- H3K9ac levels (Western blot) [6, 15]: increased protein acetylation and especially histone acetylation
- PPARA protein (Western blot) [6, 15]: suppresses the increase in PPARA; also recorded: suppressed PPARA protein
- PPARD protein (Western blot) [6, 15]: exerts little effect on PPARD
- PPARG protein (Western blot) [6, 15]: accelerates the increase in PPARG; also recorded: increased PPARG protein
- percentage fraction of PPARG-positive cells (immunofluorescence) ([6]; TA muscle 1-2 days post-freeze injury): significantly increase PPARG-positive cells
- abundance of cyclic adenosine monophosphate (cAMP), MALDI-MSI ([6]; TA muscle 6 days after single bolus): significantly decreased
- committed myoblasts (MyoG-positive Ki67-positive cells, immunofluorescence) ([6]; TA muscle over 6 days post-injury (days 2-4), single bolus at 0 h): significantly increase committed myoblasts; also recorded: significantly increased
- PPARA and PPARD mRNA expression (qRT-PCR) [6, 16]: not PPARA nor PPARD
- PPARG mRNA expression (qRT-PCR) [6, 16]: significantly increase PPARG mRNA expression
- Pax7, MyoD, MyoG, Myh3 mRNA expression (qRT-PCR) [6, 16]: significantly increased
- PPARA, PPARD, PPARG, H3K9ac, PAX7, MyoD, MyoG and Myh3 protein expression (Western blot) ([6]; non-injured and injured region of TA muscle, 6 days post-cryoinjury): can increase; also recorded: significantly increased all myogenesis markers
- mRNA markers of myoblasts including MyoD1 and Pax3 [3, 17]: increased
- mRNA markers of myogenic differentiation including Myog, Myhc, Myh2, Myh3, Myh7, Myh8, Acta1 [3, 17]: sufficient to block committed myocytes from undergoing terminal differentiation; also recorded: decreased
- mRNA markers of myogenic differentiation including Myhc, Myh3, Myh8, and Acta1 ([3]; proliferative myoblasts (24 h pre-differentiation)): sufficient to promote proliferative myoblasts to undergo differentiation; also recorded: increased
- H3K9ac and MyoD protein (Western blot) [3]: increases; also recorded: followed the same pattern of regulation as PPARG
- PPARG protein levels (Western blot) [3]: increases PPARG protein; also recorded: stabilize and/or upregulate
- proliferation ([7]; early passage primary human myoblasts (passage 12)): significantly increased proliferation; also recorded: significantly increase the proliferation rate
- proliferation ([7]; late passage primary human myoblasts (passage 18)): significantly increased proliferation; also recorded: significantly increase the proliferation rate
- percentage fraction of proliferative muscle stem cells (Pax7-positive Ki67-positive cells) [2, 9]: significantly increased
- percentage fraction of proliferative myoblasts (MyoD-positive Ki67-positive cells) [2, 9]: significantly decreased
- fraction of proliferative muscle stem cells (Pax7-positive Ki67-positive cells) [2, 10]: significantly increased
- relative changes in the % fibrotic area (Masson trichrome staining) ([5]; TA muscle): partially reverse the aged muscle fibrosis; also recorded: significant reversal of aging-induced fibrosis
- relative changes in the percentage fraction of fibrotic precursors (PGDFRA-positive and Ki67-positive) ([5]; TA muscle): partially suppress the aged muscle fibrotic precursors
- relative changes in the % fibrotic area (Masson trichrome staining) ([5]; heart tissue): partially reverse the aged cardiac fibrosis
- relative changes in the percentage fraction of fibrotic precursors (PGDFRA-positive and Ki67-positive) ([5]; heart tissue): partially suppress the aged cardiac fibrotic precursors
- relative changes in the % fibrotic area (Masson trichrome staining) ([5]; liver tissue): partially reverse the aged liver fibrosis
- relative changes in the percentage fraction of fibrotic precursors (PGDFRA-positive and Ki67-positive) ([5]; liver tissue): partially suppress the aged liver fibrotic precursors
- aging-induced fibrosis (fibrotic area) in multiple non-skeletal muscle tissues [5, 14]: significant reversal of aging-induced fibrosis
- relative changes in the % fibrotic area (Masson trichrome staining) ([5]; skin tissue): partially reverse the aged skin fibrosis
- relative changes in the percentage fraction of fibrotic precursors (PGDFRA-positive and Ki67-positive) ([5]; skin tissue): partially suppress the aged skin fibrotic precursors

Molecule: CCCCC[C@H](O)/C=C/[C@@H]1[C@@H](CCCCCCC(=O)O)[C@@H](O)C[C@H]1O [PGF1a]
- regenerative index (fraction of nuclei in embryonic MHC-positive myofibers) ([1]; TA muscle 6.5 days post-injury): significantly decrease muscle regeneration; also recorded: slightly decreased regeneration
